Square brackets hold non-standard residues; d marks the D form. Peptide text beside a SMILES is read from it. Hyp = O=C(O)[C@@H]1C[C@@H](O)CN1; pGlu = O=C1CC[C@@H](C(=O)O)N1

For one experiment, the target named is T1, Ae. aegypti NPYLR1 (Aedes aegypti, UniProt U5N0U1).
T1 sequence (U5N0U1 1-529): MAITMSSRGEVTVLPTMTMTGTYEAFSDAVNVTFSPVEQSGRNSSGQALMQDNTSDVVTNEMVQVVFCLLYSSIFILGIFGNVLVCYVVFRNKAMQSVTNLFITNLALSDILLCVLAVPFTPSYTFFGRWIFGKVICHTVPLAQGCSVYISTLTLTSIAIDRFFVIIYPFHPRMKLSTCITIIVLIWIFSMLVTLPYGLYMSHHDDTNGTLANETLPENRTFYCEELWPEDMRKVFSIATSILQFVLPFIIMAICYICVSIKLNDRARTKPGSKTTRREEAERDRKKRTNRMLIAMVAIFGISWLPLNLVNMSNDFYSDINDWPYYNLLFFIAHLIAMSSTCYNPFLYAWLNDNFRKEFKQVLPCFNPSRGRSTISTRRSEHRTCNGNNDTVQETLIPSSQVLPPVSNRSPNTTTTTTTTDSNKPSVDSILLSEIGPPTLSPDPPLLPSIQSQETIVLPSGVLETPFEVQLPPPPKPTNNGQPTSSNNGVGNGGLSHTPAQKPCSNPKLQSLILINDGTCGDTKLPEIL
The experiment in a line: HEK293T cell-based calcium imaging assay, Ae. aegypti NPYLR1. The note with it: for EC50: HEK293T cells transiently co-transfected with receptor and murine Gqα15, Fura-2 calcium imaging, eight responding cells per plate, three independent transfections, normalized to highest response. The procedure: The variant alleles of NPYLR1 (alleles A–D) and NPYLR7 (alleles A–B) were tested in the cell-based assay as follows: NPYLR1A, NPYLR7A, and NPYLR7B were tested against the entire panel of peptides. NPYLR1B, NPYLR1C, and NPYLR1D were tested against Head Peptide-I and sNPF-3 only.

The next experiment concerns Ae. aegypti NPYLR7. The experiment in a line: HEK293T cell-based calcium imaging assay, Ae. aegypti NPYLR7. Also noted: species or system Aedes aegypti. As to conditions: HEK293T + murine Gqα15, Fura-2 calcium imaging; NPYLR7B allele responded, NPYLR7A did not.
Experiment [1] deals with T2, D.mel-sNPFR (Drosophila melanogaster, UniProt Q9VW75).
T2 sequence (Q9VW75 1-600): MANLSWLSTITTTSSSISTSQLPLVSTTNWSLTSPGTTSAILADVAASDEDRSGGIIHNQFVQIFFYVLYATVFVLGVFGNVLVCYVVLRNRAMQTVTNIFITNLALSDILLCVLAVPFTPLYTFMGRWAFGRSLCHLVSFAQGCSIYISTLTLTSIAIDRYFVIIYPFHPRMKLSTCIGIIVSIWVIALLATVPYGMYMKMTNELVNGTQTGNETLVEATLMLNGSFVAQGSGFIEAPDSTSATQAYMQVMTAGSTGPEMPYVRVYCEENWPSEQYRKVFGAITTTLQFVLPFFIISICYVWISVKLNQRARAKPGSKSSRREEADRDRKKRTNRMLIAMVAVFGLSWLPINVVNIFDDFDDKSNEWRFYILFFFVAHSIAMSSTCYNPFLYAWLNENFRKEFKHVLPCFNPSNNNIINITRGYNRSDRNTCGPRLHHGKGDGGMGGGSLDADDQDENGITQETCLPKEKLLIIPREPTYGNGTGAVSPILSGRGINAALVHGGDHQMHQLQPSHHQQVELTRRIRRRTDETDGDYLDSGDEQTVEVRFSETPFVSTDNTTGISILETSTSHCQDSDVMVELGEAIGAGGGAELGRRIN
The experiment in a line: HEK293T cell-based calcium imaging assay, D.mel-sNPFR. The note with it: HEK293T + murine Gqα15, Fura-2 calcium imaging.
Protocol: (§2) HEK293T cells were cultured using standard protocols in a Thermo Scientific FORMA Series II – Water Jacketed CO2 incubator (Waltham, MA, USA). Lipofectamine 2000 (Invitrogen) was used for transient transfection of 1 µg pME18S>Candidate receptor and 1 µg pME18S>murine Gqα15 [14]. Transfected cells were loaded with the calcium sensitive dye Fura-2 (Invitrogen) according to product instructions. Cells were imaged on a Nikon Eclipse TE-2000-U microscope (Melville, NY, USA) using fluorescent excitation from a Lambda DG-4 (Sutter Instruments Co., Novato, CA, USA). Bath application of ∼300 µl solutions containing peptides diluted in Ringer's solution (0.14 M NaCl, 5.6 mM KCl, 5 mM HEPES, 2 mM pyruvic acid, 2 mM CaCl2, 2 mM MgCl2, 0.15% Glucose, 1.25 mM KH2PO4, pH 7.4) were delivered using a diaphragm pump (Gilson Minipuls3, Middleton, WI, USA) with real-time recording and analysis in Metafluor software (Version 7.1.2.0; Molecular Devices, Sunnyvale, CA, USA). Data from a complete peptide dilution series were collected from eight responding cells within each plate of three independent transfections. Data were normalized by setting the highest fluorescent response within each experiment to 100%.
We also used human Neuropeptide Y (NPY) and Peptide YY (PYY) [23](Figure 2B). […]

Experiment [2] relates to Ae. aegypti female mosquitoes. The experiment in a line: Host-seeking behavior in uniport olfactometer after peptide injection. The format is in vivo, Aedes aegypti. The note with it: non-blood-fed females, 200 nl of 4 and 10 mM peptide injected into abdomen, tested after one hour; n = 6, ~20 females per trial. From the text:
The uniport olfactometer was custom built by Vadim Sherman in the Rockefeller University High Energy Physics Instrument Shop. Approximately 15-25 female mosquitoes aged 5 to 14 days were placed within loaders, which are small plastic cylinders with mesh covering both openings and a sliding door on one end obtained from the World Health Organization Vector Control Research Unit ([…], Malaysia). […] were attached to one end of a 1 m long plastic tube ([…]) that led to an “attraction trap” (14 cm long, 5 cm diameter), followed by a sealed chamber into which a human volunteer inserted a hand or forearm (see image in Figure 1A for the configuration with a hand stimulus). Humidified room air was carbon-filtered (Donaldson Ultrac-A, Bloomington, MN), supplemented to a final concentration of 5% CO2 using flow-meters (Cole Parmer, catalogue #023-92-ST, Vernon Hills, IL), and passed over the hand or forearm of the volunteer into the olfactometer at 3.8 L/min. Mosquito loaders were attached to the olfactometer and given 5 minutes to acclimatize to air-flow prior to a 5 minute host-seeking test. Mosquitoes were scored as attracted if they flew upwind through the 1 m tube and into the “attraction trap” within the allotted time. Solutions of Head Peptide-I, sNPF-3 and Head Peptide-I [[…]] were dissolved in saline (0.1M NaCl, 4 mM KCl, 2 mM CaCl2) at a concentration of 4 and 10 mM for injection. ∼20 female mosquitoes aged 5 to 14 days were anesthetized on ice for 3 min, moved individually onto a chill-plate (BioQuip catalogue #1429, Rancho Dominguez, CA, USA), and injected with 200 nl of desired solution using a Drummond Nanoject II (Drummond catalogue # 3-000-204, Broomall, PA, USA) attached to 3.5'' needles (Drummond, catalogue #3-000-203-G/X) shaped on a needle puller (Sutter Instruments Co., Model P-97). Solutions were injected into the abdomen by piercing the second abdominal […] from the ovipositor. Injected mosquitoes were placed in loaders and allowed one hour to recover from injection before being tested for host-seeking behavior in the uniport olfactometer.

Experiment [3] concerns Ae. aegypti female mosquitoes. The note with it: earlier report; cited from earlier work. As to the method:
At least two mechanisms for host-seeking inhibition have been proposed. First, abdominal distension triggered by blood ingestion is communicated through the ventral nerve cord to inhibit host attraction for approximately 24 hours [7](Figure 1B). Second, a humoral substance discovered in hemolymph at 48 hours after a blood meal is capable of suppressing host-seeking behavior when injected into non-blood-fed females [4](Figure 1B).

A further experiment has as its target T3, A.gam-sNPFR (Anopheles gambiae, UniProt A0SIF2).
T3 sequence (A0SIF2 1-575): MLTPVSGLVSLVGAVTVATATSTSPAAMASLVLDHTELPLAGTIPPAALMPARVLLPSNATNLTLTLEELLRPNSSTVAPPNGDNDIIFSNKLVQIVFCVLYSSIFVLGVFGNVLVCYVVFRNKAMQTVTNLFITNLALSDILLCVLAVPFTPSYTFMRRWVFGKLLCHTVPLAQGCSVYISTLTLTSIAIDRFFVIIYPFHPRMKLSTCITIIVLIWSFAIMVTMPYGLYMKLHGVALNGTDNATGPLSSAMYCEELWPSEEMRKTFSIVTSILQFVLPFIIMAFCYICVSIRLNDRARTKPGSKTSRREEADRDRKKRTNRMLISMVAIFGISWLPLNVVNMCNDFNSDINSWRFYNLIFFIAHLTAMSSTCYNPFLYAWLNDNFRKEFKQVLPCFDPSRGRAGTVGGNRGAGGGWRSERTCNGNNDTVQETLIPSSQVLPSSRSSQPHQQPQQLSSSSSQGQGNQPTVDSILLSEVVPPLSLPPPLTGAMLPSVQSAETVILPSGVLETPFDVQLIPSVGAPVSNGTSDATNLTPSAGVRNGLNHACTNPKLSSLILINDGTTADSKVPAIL
The note with it: earlier reports, not this paper's assay; cited from earlier work. From the text: (§1) Ae. aegypti NPYLR1 is homologous to the sNPF receptors (sNPFR) of D. melanogaster, [24] and An. gambiae. […] We have no explanation for these discrepancies, but note that since D ...

The target in experiment [4] is T2, D.mel-sNPFR. The note with it: earlier reports, not this paper's assay; cited from earlier work.
Source text: as §1

Protocol for Ae. aegypti NPYLR7: as §2
NPYLR1B, NPYLR1C, and NPYLR1D were tested against Head Peptide-I and sNPF-3 only. […]

As to `CC(C)C[C@H](NC(=O)[C@H](CCCNC(=N)N)NC(=O)[C@H](CC(C)C)NC(=O)[C@H](CO)NC(=O)[C@@H]1CCCN1C(=O)[C@H](CO)NC(=O)[C@H](CCCNC(=N)N)NC(=O)[C@@H](NC(=O)[C@H](C)NC(=O)[C@@H](N)CCCCN)C(C)C)C(=O)N[C@@H](CCCNC(=N)N)C(=O)N[C@@H](Cc1ccccc1)C(N)=O` [sNPF-1] (H-KAVRSPSLRLRF-NH2; N-terminus assumed), the EC50 (usually the concentration needed to bring the measured effect to its halfway point) on Ae. aegypti NPYLR1 turned out to be 55 nM; in the experiment with Ae. aegypti NPYLR7, 634 nM.
With `CC(C)C[C@H](NC(=O)[C@H](CO)NC(=O)[C@@H]1C[C@@H](O)CN1C(=O)[C@@H]1CCCN1C(=O)[C@H](CCCNC(=N)N)NC(=O)[C@@H]1CCC(=O)N1)C(=O)N[C@@H](CCCCN)C(=O)N[C@H](C(=O)N[C@@H](CCCNC(=N)N)C(=O)N[C@@H](Cc1ccccc1)C(N)=O)[C@@H](C)O` [Head Peptide-I] ([pGlu]RP[Hyp]SLKTRF-NH2), the EC50 at Ae. aegypti NPYLR1 turned out to be 823 nM; on D.mel-sNPFR [1], 1000 nM. The “Host-seeking behavior (percent attraction to human host stimuli) after injection” value in experiment [2] was “inhibition of host-seeking behavior”. In addition, the “Host-seeking behavior activity of injected peptide” value (“Host-seeking behavior activity” below) in experiment [3] is on record as “sufficient to inhibit host-seeking behavior”.
Turning to `CC(C)C[C@H](NC(=O)[C@H](CCCNC(=N)N)NC(=O)[C@H](CCC(N)=O)NC(=O)[C@H](CO)NC(=O)[C@@H]1CCCN1C(=O)[C@H](C)N)C(=O)N[C@@H](CCCNC(=N)N)C(=O)N[C@@H](Cc1c[nH]c2ccccc12)C(N)=O` [sNPF-3] (H-APSQRLRW-NH2; N-terminus assumed), the EC50 is 75 nM on Ae. aegypti NPYLR1 and 6000 nM with Ae. aegypti NPYLR7. The “Sensitivity of NPYLR1 to sNPF-3 relative to Head Peptide-I” value at Ae. aegypti NPYLR1 (cell-based assay) was “ten times more sensitive”. Moreover, the “Host-seeking behavior (percent attraction to human host stimuli) after injection” value in experiment [2] was “inhibited host-seeking behavior”.
For the compound `CC(C)C[C@H](NC(=O)[C@H](CO)NC(=O)[C@@H]1CCCN1C(=O)[C@@H]1CCCN1C(=O)[C@H](CCCNC(=N)N)NC(=O)[C@@H]1CCC(=O)N1)C(=O)N[C@@H](CCCCN)C(=O)N[C@H](C(=O)N[C@@H](CCCNC(=N)N)C(=O)N[C@@H](Cc1ccccc1)C(N)=O)[C@@H](C)O` [Head Peptide-III] ([pGlu]RPPSLKTRF-NH2), the EC50 at Ae. aegypti NPYLR1 worked out at 954 nM. Besides, the “Sensitivity of An. gambiae sNPFR to Head Peptide-III” value on A.gam-sNPFR is listed as “lack sensitivity”. Moreover, the “Sensitivity of D. melanogaster sNPFR to Head Peptide-III” value on D.mel-sNPFR [4] is listed as “lack sensitivity”. In addition, the “Host-seeking behavior activity” value in experiment [3] was “behaviorally inactive”.
Consider `CC(C)C[C@H](NC(=O)[C@H](CCCNC(=N)N)NC(=O)[C@H](CC(C)C)NC(=O)[C@H](CCC(N)=O)NC(=O)[C@@H]1CCCN1C(=O)[C@H](C)N)C(=O)N[C@@H](CCCNC(=N)N)C(=O)N[C@@H](Cc1ccccc1)C(N)=O` [sNPF-2+4] (H-APQLRLRF-NH2), for which, at Ae. aegypti NPYLR1, the EC50 came to 35 nM.
On to pERPhPSLKTRC [Head Peptide-I [Cys10]], for which, on Ae. aegypti NPYLR1 (concentrations up to 50 µM, HEK293T + murine Gqα15, Fura-2), the “Calcium response of NPYLR1” value was “no response”. Further, the “Host-seeking behavior (percent attraction to human host stimuli) after injection” value in experiment [2] was “had no effect”. In experiment [3], the “Host-seeking behavior activity” value was “inactive”.
With `CC(C)C[C@H](NC(=O)[C@H](CCCNC(=N)N)NC(=O)[C@H](CC(C)C)NC(=O)[C@H](CO)NC(=O)[C@@H]1CCCN1C(=O)[C@@H](N)CO)C(=O)N[C@@H](CCCNC(=N)N)C(=O)N[C@@H](Cc1ccccc1)C(N)=O` [sNPF-1(4-11)] (H-SPSLRLRF-NH2), the EC50 on Ae. aegypti NPYLR1 turned out to be 44 nM.

Source of the values: PMC3794971, “Functional and Genetic Characterization of Neuropeptide Y-Like Receptors in Aedes aegypti” (PLoS Neglected Tropical Diseases, 2013).
